Assay results as given in patent US4600772A, “Cephalosporin antibiotics” (Glaxo Group Limited, priority 1978, dated 1986).

Columns and labels:
[1] = system: wide range of commonly encountered pathogenic organisms; test: Broad spectrum / general antibiotic activity; format: cell-based
[2] = system: strains of Pseudomonas organisms; test: Antibacterial activity against strains of Pseudomonas organisms; format: cell-based; conditions: e.g. strains of Pseudomonas aeruginosa
[3] = Effect of human serum on antibacterial properties; format: cell-based
[4] = Effect of increased inocula; format: cell-based
[5] = Bactericidal action; format: cell-based; conditions: at concentrations close to the minimum inhibitory concentration
[6] = system: gram-negative bacteria; test: Experimental infections in mice with gram-negative bacteria; format: in vivo
[7] = system: Pseudomonas aeruginosa; test: Experimental infections in mice with Pseudomonas aeruginosa; format: in vivo
[8] = Acute toxicity tests in mice; conditions: mouse, in vivo
[9] = Nephrotoxicity in rats; format: in vivo; conditions: dosages of 2.0 g/kg
[10] = in vivo
[11] = in vivo; remark: listed apart in the source
[12] = Distribution in small rodents after subcutaneous injection

Row | Structure (SMILES) | properties compared with the compound of formula (Ib) [1] | activity against strains of Pseudomonas organisms [2] | antibiotic activity / general antibiotic properties [1] | impairment of antibacterial properties by human serum [3] | effect of increased inocula [4] | bactericidal action [5] | treatment of experimental infections in mice with gram-negative bacteria [6] | protection against strains of Pseudomonas aeruginosa [7] | protection compared with an aminoglycoside such as amikacin ([7]; versus amikacin) | LD50 [8] [mg/kg] | nephrotoxicity [9] | distribution in the body [10] | serum levels [11] | therapeutic levels [12]
1 | Nc1nc(/C(=N/OC2(C(=O)O)CCC2)C(=O)N[C@@H]2C(=O)N3C(C(=O)[O-])=C(C[n+]4ccccc4)CS[C@H]23)cs1 [(6R,7R)-7-[(Z)-2-(2-aminothiazol-4-yl)-2-(1-carboxycyclobut-1-oxyimino)acetamido]-3-(1-pyridiniummethyl)-ceph-3-em-4-carboxylate] | not dissimilar properties | – | – | – | – | – | – | – | – | – | – | – | – | –
2 | CC(C)(O/N=C(\C(=O)N[C@@H]1C(=O)N2C(C(=O)[O-])=C(C[n+]3ccccc3)CS[C@H]12)c1csc(N)n1)C(=O)O [compound of formula (Ib), (6R,7R)-7-[(Z)-2-(2-aminothiazol-4-yl)-2-(2-carboxyprop-2-oxyimino)acetamido]-3-(1-pyridiniummethyl)-ceph-3-em-4-carboxylate] | – | excellent activity | possesses to an outstanding extent the general antibiotic properties | not impaired by human serum | low | rapidly bactericidal | successfully treated | excellent protection | comparable | > 1000 | No nephrotoxicity was observed | well distributed | high and long lasting serum levels | useful therapeutic levels
